Here are results for ten compounds from PubChem BioAssay (NCI).

Structures are written as SMILES. Where “and” joins values, the source holds several entries; their conditions need not be identical. Identical values can stand only once.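 Protocol summary: plate cells (96-well), add compound at 5 concentrations, incubate 48 h, interpolate endpoints linearly. GI50 = concentration required for 50% inhibition of growth. The concentration for full growth arrest is given as TGI.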

Test systems include BT-549 breast; EKVX NSCLC; HT29 colon; MCF7 breast; MDA-MB-231 breast; T-47D breast; UACC-62 melanoma; UO-31 renal; M19-MEL melanoma; DLD-1 colon.
What all share (assay): inhibition of tumour cell growth, NCI panel, 48 h

As for `CN(CCCCCl)P(=O)(OCCS(=O)(=O)CC(NC(=O)CCC(N)C(=O)O)C(=O)NC(C(=O)O)c1ccccc1)OCC1OC(n2ccc(N)nc2=O)C(O)C1O` (centres undefined), the GI50 in the assay on BT-549 breast was 48.7 µM; in the assay with EKVX NSCLC, 67.4 µM; in the assay with HT29 colon it was 32.2 µM; in the assay on MCF7 breast it was 3.27 µM; in the assay on MDA-MB-231 breast, above 75 µM; in the assay on T-47D breast it was 23.1 µM. The figures for the GI50 with UACC-62 melanoma and in the assay on UO-31 renal were 35.8 µM and 8.17 µM, respectively. Moreover, the TGI with BT-549 breast, in the assay on EKVX NSCLC, with HT29 colon, with MCF7 breast, in the assay on MDA-MB-231 breast and in the assay with T-47D breast was above 75 µM in each case. The TGI was above 75 µM in the assay on UACC-62 melanoma and above 59.7 µM with UO-31 renal.

As for `Cc1ccc(-c2nc3ccccc3c(=O)n2NCC2(O)OCC(O)C(O)C2O)cc1` (centres undefined), the TGI in the assay on EKVX NSCLC, in the assay on HT29 colon, with M19-MEL melanoma, with UACC-62 melanoma and with UO-31 renal was above 100 µM throughout.

As to `O=c1oc2ccc(I)cc2c(=O)n1-c1ccc(F)cc1F`, the GI50 is 1.91 µM in the assay with BT-549 breast; 1.98 µM with EKVX NSCLC; 3.4 µM in the assay with HT29 colon; 2.38 µM in the assay with MCF7 breast; 1.89 µM with MDA-MB-231 breast; 1.99 µM with T-47D breast. Moreover, the GI50 with UACC-62 melanoma was 1.31 µM; with UO-31 renal, 1.48 µM. In addition, the TGI stood at 4.98 µM in the assay with BT-549 breast; 8.1 µM with EKVX NSCLC; 15.4 µM with HT29 colon; 49.1 µM in the assay with MCF7 breast; 6.01 µM in the assay with MDA-MB-231 breast; 6 µM in the assay on T-47D breast. The results for the TGI in the assay with UACC-62 melanoma and in the assay on UO-31 renal were 4.19 µM and 5.71 µM, respectively.

For the compound `O=C(CCl)NCCNc1nccc(Nc2ccc(S(=O)(=O)Nc3ccccn3)cc2)n1`, the GI50 was 2.32 µM in the assay on BT-549 breast; 3.15 µM with EKVX NSCLC; 2.41 µM in the assay on HT29 colon; 1.78 µM with MCF7 breast; 2.9 µM in the assay with MDA-MB-231 breast; 1.9 µM with T-47D breast. Besides, the GI50 was 1.74 µM in the assay with UACC-62 melanoma and 2.77 µM in the assay on UO-31 renal. The TGI with BT-549 breast was 13.9 µM; with EKVX NSCLC, 12.8 µM; with HT29 colon, 6.52 µM; in the assay with MCF7 breast, 5.61 µM; with MDA-MB-231 breast it was 9.98 µM; in the assay with T-47D breast, 8.33 µM. For the same compound, the TGI with UACC-62 melanoma came to 4.24 µM; in the assay with UO-31 renal, 10 µM.

For `O=C(O)[C@H](Cc1c[nH]c2ccccc12)N1C(=O)c2ccccc2C1=O`, the TGI in the assay on BT-549 breast, in the assay with EKVX NSCLC, in the assay on HT29 colon, with MCF7 breast, in the assay with MDA-MB-231 breast and with T-47D breast was above 100 µM in each case. Also, the TGI in the assay on UACC-62 melanoma and with UO-31 renal was above 100 µM throughout.

On to `CC1=CC(C)=NN=C(N)N1S(=O)(=O)c1cc(C)c(Cl)cc1SCc1ccccc1`, for which the GI50 with BT-549 breast was 17.8 µM; with EKVX NSCLC, 6.08 µM; in the assay with HT29 colon it was 24.5 µM; in the assay on MCF7 breast, 13.3 µM; with MDA-MB-231 breast it was above 100 µM; in the assay on T-47D breast it was 4.21 µM. In addition, the GI50 in the assay on UACC-62 melanoma was 12.4 µM; in the assay with UO-31 renal it was 5.18 µM. The TGI is above 100 µM in the assay with BT-549 breast; above 100 µM with EKVX NSCLC; above 100 µM in the assay with HT29 colon; above 100 µM in the assay on MCF7 breast; above 100 µM in the assay on MDA-MB-231 breast; 79.1 µM with T-47D breast. Besides, the TGI in the assay with UACC-62 melanoma and in the assay on UO-31 renal was above 100 µM each time.

Turning to `CCCCN1CCCC[C@@H]1C(=O)N[C@H](C(=O)N(C)[C@H](C[C@@H](OC(C)=O)c1nc(C(=O)NC2CCC(C(=O)OC)CC2)cs1)C(C)C)C(C)C` (some centres undefined), the GI50 in the assay with BT-549 breast is 1.4 µM; in the assay on EKVX NSCLC, 1.15 µM; in the assay with HT29 colon, 0.96 µM; in the assay on MCF7 breast it was 0.806 µM; in the assay with MDA-MB-231 breast, 1.89 µM; with T-47D breast, 1.62 µM. The GI50 in the assay with UACC-62 melanoma is 1.06 µM; in the assay with UO-31 renal it was 7.06 µM. In addition, the TGI in the assay with BT-549 breast was above 25 µM; in the assay on EKVX NSCLC, above 25 µM; in the assay on HT29 colon, 13.6 µM; with MCF7 breast, above 25 µM; in the assay on MDA-MB-231 breast, 18.2 µM; in the assay on T-47D breast, above 25 µM. Also, the TGI with UACC-62 melanoma and in the assay with UO-31 renal was above 25 µM in each case.

In the case of `Cc1n[nH]c(=S)n(C)c1=S`, the TGI in the assay with DLD-1 colon, in the assay on EKVX NSCLC, with M19-MEL melanoma, in the assay on UACC-62 melanoma and with UO-31 renal was above 100 µM each time.

Turning to `COc1ccc(C#Cc2ccc(=O)oc2-c2cc(OC)c(OC)c(OC)c2)cc1O`, the GI50 with BT-549 breast is 7.37 µM; in the assay on EKVX NSCLC, 22.2 µM; with HT29 colon, 7.98 µM; with MCF7 breast, 0.666 µM; in the assay with MDA-MB-231 breast it was 6.25 µM; in the assay on UACC-62 melanoma, 5.53 µM. Further, the GI50 with UO-31 renal was 11.1 µM. The TGI with BT-549 breast was above 64.2 µM; in the assay with EKVX NSCLC, above 100 µM; in the assay with HT29 colon, above 35.6 µM; in the assay on MCF7 breast, above 100 µM; in the assay with MDA-MB-231 breast it was above 100 µM; in the assay on T-47D breast it was above 100 µM. In addition, the TGI in the assay on UACC-62 melanoma was above 100 µM; with UO-31 renal, above 79.8 µM.

Consider `CCN(CC)CCCC(C)Nc1ccnc2cc(Cl)ccc12` (centres undefined), for which the GI50 in the assay with BT-549 breast is 55.9 µM; with HT29 colon, 45.7 µM; in the assay on MCF7 breast, 63.9 µM; in the assay with MDA-MB-231 breast, above 100 µM; in the assay on T-47D breast, above 100 µM; in the assay on UACC-62 melanoma, 37.6 µM. The GI50 in the assay on UO-31 renal is 84.8 µM. For the same compound, the TGI is above 100 µM in the assay with BT-549 breast; above 100 µM in the assay on DLD-1 colon; above 100 µM in the assay with EKVX NSCLC; above 100 µM in the assay on HT29 colon; > 100 µM and 42.3 µM in the assay with MCF7 breast; > 100 µM and 73.4 µM in the assay with MDA-MB-231 breast. The TGI was > 100 µM and 64.1 µM in the assay with T-47D breast; above 100 µM with UACC-62 melanoma; > 100 µM and 46.4 µM with UO-31 renal.
